Tested on: CA77 cells
Assay: CA77 cell assay, real-time RT-PCR (TaqMan)
Format: cell-based, rat
Settings: CA77 cells
Protocol: Assay: CA77 cells were plated into 96 well tissue culture dishes at a density of 8×10^4 cells per well in 200 μl of PM and the cultures maintained in a humidified air atmosphere (7.5% CO2) at 37° C. This media was aspirated after 24 hours and replaced with 200 μl of GM and the cultures incubated as before, for an additional 48 hours, at which time the cultures were at approximately 90% confluency.
For the evaluation of agonist activity, the GM was aspirated, replaced with 200 μl of fresh GM containing concentrations of a drug ranging from 0.1 nM to 10,000 nM in a 10-fold dilution series. Control wells of 0 nM drug in GM and 0.1% DMSO in GM were included in the series for each drug. Each drug concentration and the two controls were evaluated on 4 wells. The cultures were maintained in a humidified air atmosphere (7.5% CO2) at 37° C. for 24 hours.
Control wells of 0 nM drug in GM containing 250 nM corticosterone and 0.1% DMSO in GM (without corticosterone) were included in the series for each drug. Each drug concentration and the two controls were evaluated on 4 wells. The cultures were maintained in a humidified air atmosphere (7.5% CO2) at 37° C. for 24 hours.
Lysis of Cells and Isolation of mRNA: Two methods were employed for the lysis of the cells and the isolation of mRNA at the end of the 24-hour incubation with the drugs.
One method was the mRNA Catcher™ Method (using Kit number 37001, sold by Invitrogen Corporation). The GM was aspirated from the cells, the cell monolayer was washed once with PBS (product number 10010, sold by Invitrogen Corporation), and then the cells were lysed in 30 μl of the kit lysis buffer containing 1% β-ME for 5 minutes at room temperature. The lysates were snap frozen in the 96-well plate by placing the plate on dry ice pellets, and the plate was then stored at −80° C.
The lysates were thawed at room temperature and then transferred into individual wells in the mRNA Catcher™ plate. The plate was covered and incubated for 90 minutes at room temperature for RNA hybridization. […]

## C[C@@H]1C[C@H]2[C@@H]3CCC4=CC(=O)C=C[C@]4(C)[C@@]3(F)[C@@H](O)C[C@]2(C)[C@@]1(O)C(=O)CO [Dexamethasone, dexamethasone]
  Sult1a1 up-regulation as detected by RT-PCR: 158 fold
